Data taken from PubChem BioAssay (NCI).
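Results reflect a 48-hour exposure of cells in 96-well plates to compound at five concentrations. The concentration for full growth arrest is given as TGI.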

What was measured:
Experiment in all cases: growth of human tumour cells (NCI), 48 h
[1] = tested on: HL-60(TB) leukemia
[2] = tested on: NCI-H522 lung
[3] = tested on: PC-3 prostate
[4] = tested on: NCI/ADR-RES ovarian
[5] = tested on: RXF 393 renal
[6] = tested on: SF-295 CNS
[7] = tested on: UO-31 renal
[8] = tested on: T-47D breast
[9] = tested on: MCF7 breast
[10] = tested on: SNB-19 CNS
[11] = tested on: A498 renal
[12] = tested on: CCRF-CEM leukemia
[13] = tested on: A549 NSCLC

SMILES	TGI [1] [µM]	TGI [2] [µM]	TGI [3] [µM]	TGI [4] [µM]	TGI [5] [µM]	TGI [6] [µM]	TGI [7] [µM]	TGI [8] [µM]	TGI [9] [µM]	TGI [10] [µM]	TGI [11] [µM]	TGI [12] [µM]	TGI [13] [µM]
NC(=O)c1ccc(C(=O)Nc2ccc([As](=O)(O)O)cc2)cc1	> 100	> 100	> 100	> 100	> 100	> 100	> 100	> 100	> 100	> 100	> 100	> 100	> 100
Cn1c2ccc([N+](=O)[O-])cc2c(=O)n1Cc1ccccc1F	> 100	71.5	> 100	76.3	> 100	> 100	> 100	> 100	> 100	> 100	> 100	> 100	> 100
CC(=O)c1cccc(Nc2nc3ccccc3c3occc23)c1	> 100		> 100	> 100	41.7	48.4		> 100	> 100	60.9	30.5	> 100	> 100
CC1OC(OC2C(OC(=O)[C@]34CCC(C)(C)C[C@H]3C3=CC[C@@H]5[C@@]6(C)CC[C@H](OC7OC(C(=O)O)C(O)C(O)C7O)C(C)(C)[C@@H]6CC[C@@]5(C)[C@]3(C)C[C@H]4O)OCC(O)C2O)C(O)C(O)C1OC1OCC(OC2OCC(O)C(O)C2O)C(O)C1O (some centres not stated)	18.1	16.5	19.3	25.1	29	22.2	4.84	26.3	17.6	18.4	3.06		15.5
COc1ccc(NC(=S)Nc2cc(C)cc(C)n2)cc1	> 100	> 100	> 100	> 100	> 100	> 100	> 100	> 100	> 100	> 100	> 100	> 100	> 100
O=C1C=Cc2c(Br)sc(Br)c21	58.7	68.2	49.7	> 100	46	> 100	39.2	81.8	> 100	> 100	> 100	11.3	> 100
CC1=C(C(=O)OCCO[N+](=O)[O-])C(c2cccc([N+](=O)[O-])c2)C(C(=O)OC(C)C)=C(C)N1 (configuration not stated)	> 100	34.9	15.6	34.3	31.5	56.6	28.1	53.6	86.3	75.4	46.8	> 100	37.4
CCOC(=O)c1c(SC(=O)c2ccc(C(C)(C)C)cc2)n(-c2ccccc2)c(=S)n(-c2ccccc2)c1=O	> 100	> 100	> 100	> 100	> 100	> 100		> 100	> 100	> 100	> 100	> 100	> 100
CC(=O)Nc1oc(C)c(C)c1S(=O)(=O)c1ccc(Cl)cc1	> 100	> 100	83.4	> 100	> 100	> 100	> 100	> 100	> 100	> 100	> 100	> 100	> 100
COc1cccc2c1C(=O)C1=C(C2=O)C(O)CC(C)(C)O1 (configuration not stated)	33.8	62.8	68.4	75.7	> 100	> 100	> 100	> 100	> 100	> 100	> 100	66.9	> 100
COc1ccc(N2CN3OC(=O)N(c4ccc(OC)cc4)[C@@]3(c3ccccc3)C2)cc1	67.9	> 100	67.3	32	74.6	92.9	> 100	69.2	> 100	> 100	> 100		> 100
CN(C)c1ccc(C2CC(c3ccc4ccccc4c3O)=NN2)cc1 (configuration not stated)		85.5	> 100	> 100	> 100	> 100	> 100	> 100	> 100		66.8	83.3	> 100
COc1ccccc1CCN1CCN(CCCc2ccccc2)CC1	> 100	> 100	> 100	> 100	> 100	> 100	> 100	> 100	> 100	> 100	> 100	> 100	> 100
C=C1C[C@@H]2CC[C@@]34CC5O[C@H]6C(O[C@H]7CC[C@H](CC(=O)O[C@@H]8[C@@H](C)[C@@H]9O[C@@H]%10C[C@]%11(C[C@@H]%12O[C@]%13(C[C@H](C)[C@@H]%14O[C@@H]%15CC(C(O)CO)O[C@@H]%15C[C@@H]%14O%13)C[C@H](C)[C@@H]%12O%11)O[C@@H]%10C[C@@H]9O[C@H]8CC8O[C@@H](CC[C@@H]1O2)C[C@@H](C)C8(O)CO)O[C@@H]7[C@@H]6O3)[C@H]5O4 (some centres not stated)	> 1	0.614	> 1	> 1	> 1	> 1	> 1	> 1	> 1	> 1	> 1	> 1	> 1
O=C1NC(N/N=C/c2ccccc2)=N/C1=C\c1ccco1	> 100	95.2	> 100	> 100	80.4	> 100	86	> 100	> 100	> 100	> 100	> 100	81.3
N#Cc1cccc2c1Sc1ccccc1N2	> 100		> 100	> 100	33.7	69.1	87.9	> 100	> 100	> 100	58.3	> 100	> 100
Nc1ccccc1-c1noc(=O)[nH]1		> 100	> 100	> 100	> 100	> 100	> 100	> 100	> 100	> 100	> 100	> 100	> 100
